# Source: US8877748B2, “Heterocyclic fused anthraquinone derivatives, manufacturing method and pharmaceutical composition using thereof” (National Defense Medical Center, priority 2012, dated 2014)
# Tests used:
# Assay type in all cases: cell-based, human
# [1] = tested on: PC-3 prostate cancer cell line; assay: SRB assay cell viability, PC-3 prostate cancer cell line; details: Homo sapiens, PC-3 prostate cancer cell line, Table II prints no unit, μM printed, read-out: SRB assay: 50% inhibition of cancer cell proliferation of sample concentration (IC50) of PC-3 prostate cancer cell line
# [2] = tested on: CCRF-CEM; assay: NCI screening platform one-dose single concentration screening, leukemia CCRF-CEM; details: 10 μM
# [3] = tested on: HL-60, TB; assay: NCI one-dose screening, leukemia HL-60, TB; details: 10 μM
# [4] = tested on: MOLT-4; assay: NCI one-dose screening, leukemia MOLT-4; details: 10 μM
# [5] = tested on: SR; assay: NCI one-dose screening, leukemia SR; details: 10 μM
# [6] = tested on: PRMI-8226 cell line; assay: NCI one-dose screening, leukemia PRMI-8226; details: 10 μM
# [7] = tested on: K562cell line; assay: NCI one-dose screening, leukemia K562; details: 10 μM
# [8] = tested on: EKVX; assay: NCI one-dose screening, non-small cell lung cancer EKVX; details: 10 μM
# [9] = tested on: HOP-62; assay: NCI one-dose screening, non-small cell lung cancer HOP-62; details: 10 μM
# [10] = tested on: NCI-H226; assay: NCI one-dose screening, non-small cell lung cancer NCI-H226; details: 10 μM
# [11] = tested on: NCI-H23; assay: NCI one-dose screening, non-small cell lung cancer NCI-H23; details: 10 μM
# [12] = tested on: NCI-H322M; assay: NCI one-dose screening, non-small cell lung cancer NCI-H322M; details: 10 μM; Non-small cell lung cancer
# [13] = tested on: NCI-H460; assay: NCI one-dose screening, non-small cell lung cancer NCI-H460; details: 10 μM
# [14] = tested on: NCI-H522; assay: NCI one-dose screening, non-small cell lung cancer NCI-H522; details: 10 μM
# [15] = tested on: A549/ATCC; assay: NCI one-dose screening, non-small cell lung cancer A549/ATCC; details: 10 μM
# [16] = tested on: COLO 205; assay: NCI one-dose screening, colon cancer COLO 205; details: 10 μM
# [17] = tested on: HCC-2998; assay: NCI one-dose screening, colon cancer HCC-2998; details: 10 μM
# [18] = tested on: HCT-116; assay: NCI one-dose screening, colon cancer HCT-116; details: 10 μM
# [19] = tested on: HCT-15; assay: NCI one-dose screening, colon cancer HCT-15; details: 10 μM
# [20] = tested on: KM12; assay: NCI one-dose screening, colon cancer KM12; details: 10 μM
# [21] = tested on: HT29; assay: NCI one-dose screening, colon cancer HT29; details: 10 μM
# [22] = tested on: SF-268; assay: NCI one-dose screening, CNS cancer SF-268; details: 10 μM
# [23] = tested on: SF-295; assay: NCI one-dose screening, CNS cancer SF-295; details: 10 μM
# [24] = tested on: SF-539; assay: NCI one-dose screening, CNS cancer SF-539; details: 10 μM
# [25] = tested on: SNB-19; assay: NCI one-dose screening, CNS cancer SNB-19; details: 10 μM
# [26] = tested on: SNB-75; assay: NCI one-dose screening, CNS cancer SNB-75; details: 10 μM
# [27] = tested on: U251; assay: NCI one-dose screening, CNS cancer U251; details: 10 μM
# [28] = tested on: LOX IMVI; assay: NCI one-dose screening, melanoma LOX IMVI; details: 10 μM
# [29] = tested on: MALME-3M; assay: NCI one-dose screening, melanoma MALME-3M; details: 10 μM
# [30] = tested on: M14; assay: NCI one-dose screening, melanoma M14; details: 10 μM
# [31] = tested on: UACC-62; assay: NCI one-dose screening, melanoma UACC-62; details: 10 μM
# [32] = tested on: UACC-257; assay: NCI one-dose screening, melanoma UACC-257; details: 10 μM
# [33] = tested on: SK-MEL-2; assay: NCI one-dose screening, melanoma SK-MEL-2; details: 10 μM
# [34] = tested on: SK-MEL-28; assay: NCI one-dose screening, melanoma SK-MEL-28; details: 10 μM
# [35] = tested on: SK-MEL-5; assay: NCI one-dose screening, melanoma SK-MEL-5; details: 10 μM
# [36] = tested on: IGROV1; assay: NCI one-dose screening, ovarian cancer IGROV1; details: 10 μM
# [37] = tested on: OVCAR-3; assay: NCI one-dose screening, ovarian cancer OVCAR-3; details: 10 μM
# [38] = tested on: OVCAR-4; assay: NCI one-dose screening, ovarian cancer OVCAR-4; details: 10 μM
# [39] = tested on: OVCAR-5; assay: NCI one-dose screening, ovarian cancer OVCAR-5; details: 10 μM
# [40] = tested on: OVCAR-8; assay: NCI one-dose screening, ovarian cancer OVCAR-8; details: 10 μM
# [41] = tested on: 786-O; assay: NCI one-dose screening, renal cancer 786-O; details: 10 μM
# [42] = tested on: CAKI-1; assay: NCI one-dose screening, renal cancer CAKI-1; details: 10 μM
# [43] = tested on: ACHN; assay: NCI one-dose screening, renal cancer ACHN; details: 10 μM
# [44] = tested on: SN12C; assay: NCI one-dose screening, renal cancer SN12C; details: 10 μM
# [45] = tested on: TK-10; assay: NCI one-dose screening, renal cancer TK-10; details: 10 μM
# [46] = tested on: RXF, 393; assay: NCI one-dose screening, renal cancer RXF, 393; details: 10 μM
# [47] = tested on: NCl/ADR-RES; assay: NCI one-dose screening, breast cancer NCl/ADR-RES; details: 10 μM; listed under Ovarian cancer
# [48] = tested on: MDA, -MB-435; assay: NCI one-dose screening, breast cancer MDA, -MB-435; details: 10 μM; listed under Melanoma
smiles,measurement,setting,value
"Cc1cccc(C)c1Sc1cc2c(c3nsnc13)C(=O)c1ccccc1C2=O [C55, 4-(2,6-dimethylphenylthio)anthra[2,1-c] [1,2,5]thiadiazol-6,11-dione]",IC50,[1],6.74 µM
same,Growth Percent CCRF-CEM,[2],34.84%
same,Growth Percent HL-60(TB),[3],47.83%
same,Growth Percent MOLT-4,[4],32.64%
same,Growth Percent SR,[5],35.52%
same,Growth Percent RPMI-8226,[6],55.63%
same,Growth Percent K562,[7],43.14%
same,Growth Percent EKVX,[8],82.44%
same,Growth Percent HOP-62,[9],90.01%
same,Growth Percent NCI-H226,[10],78.31%
same,Growth Percent NCI-H23,[11],67.37%
same,Growth Percent NCI-H322M,[12],83.83%
same,Growth Percent NCI-H460,[13],87.37%
same,Growth Percent NCI-H522,[14],61.39%
same,Growth Percent A549/ATCC,[15],90.16%
same,Growth Percent COLO 205,[16],98.76%
same,Growth Percent HCC-2998,[17],100.96%
same,Growth Percent HCT-116,[18],64.99%
same,Growth Percent HCT-15,[19],47.54%
same,Growth Percent KM12,[20],95.96%
same,Growth Percent HT29,[21],97.73%
same,Growth Percent SF-268,[22],79.48%
same,Growth Percent SF-295,[23],91.11%
same,Growth Percent SF-539,[24],84.51%
same,Growth Percent SNB-19,[25],94.75%
same,Growth Percent SNB-75,[26],69.38%
same,Growth Percent U251,[27],53.94%
same,Growth Percent LOX IMVI,[28],44.61%
same,Growth Percent MALME-3M,[29],73.72%
same,Growth Percent M14,[30],121.55%
same,Growth Percent UACC-62,[31],91.72%
same,Growth Percent UACC-257,[32],86.57%
same,Growth Percent SK-MEL-2,[33],67.54%
same,Growth Percent SK-MEL-28,[34],89.33%
same,Growth Percent SK-MEL-5,[35],70.23%
same,Growth Percent IGROV1,[36],66.38%
same,Growth Percent OVCAR-3,[37],1.00%
same,Growth Percent OVCAR-4,[38],4.00%
same,Growth Percent OVCAR-5,[39],113.96%
same,Growth Percent OVCAR-8,[40],58.98%
same,Growth Percent 786-0,[41],115.19%
same,Growth Percent CAKI-1,[42],61.03%
same,Growth Percent ACHN,[43],83.18%
same,Growth Percent SN12C,[44],67.67%
same,Growth Percent TK-10,[45],119.41%
same,Growth Percent RXF 393,[46],76.16%
same,Growth Percent NCI/ADR-RES,[47],59.68%
same,Growth Percent MDA-MB-435,[48],96.77%
"CCSc1cc2c(c3nsnc13)C(=O)c1ccccc1C2=O [C16, 4-(ethylthio)anthra[2,1-c][1,2,5] thiadiazol-6,11-dione]",IC50,[1],5.39 µM
same,Growth Percent CCRF-CEM,[2],−35.53%
same,Growth Percent HL-60(TB),[3],−45.01%
same,Growth Percent MOLT-4,[4],−50.44%
same,Growth Percent SR,[5],−54.27%
same,Growth Percent RPMI-8226,[6],−35.20%
same,Growth Percent K562,[7],−44.64%
same,Growth Percent EKVX,[8],56.13%
same,Growth Percent HOP-62,[9],2.44%
same,Growth Percent NCI-H226,[10],53.41%
same,Growth Percent NCI-H23,[11],−25.43%
same,Growth Percent NCI-H322M,[12],89.71%
same,Growth Percent NCI-H460,[13],27.92%
same,Growth Percent NCI-H522,[14],−88.01%
same,Growth Percent A549/ATCC,[15],20.39%
same,Growth Percent COLO 205,[16],97.05%
same,Growth Percent HCC-2998,[17],90.47%
same,Growth Percent HCT-116,[18],−82.82%
same,Growth Percent HCT-15,[19],2.65%
same,Growth Percent KM12,[20],69.33%
same,Growth Percent HT29,[21],77.39%
same,Growth Percent SF-268,[22],−54.89%
same,Growth Percent SF-295,[23],79.94%
same,Growth Percent SF-539,[24],−22.78%
same,Growth Percent SNB-19,[25],83.19%
same,Growth Percent SNB-75,[26],33.65%
same,Growth Percent U251,[27],−73.58%
same,Growth Percent LOX IMVI,[28],−91.42%
same,Growth Percent MALME-3M,[29],−58.68%
same,Growth Percent M14,[30],47.15%
same,Growth Percent UACC-62,[31],−38.24%
same,Growth Percent UACC-257,[32],−86.35%
same,Growth Percent SK-MEL-2,[33],−69.35%
same,Growth Percent SK-MEL-28,[34],−41.99%
same,Growth Percent SK-MEL-5,[35],−94.86%
same,Growth Percent IGROV1,[36],−54.45%
same,Growth Percent OVCAR-3,[37],−76.39%
same,Growth Percent OVCAR-4,[38],−100.00%
same,Growth Percent OVCAR-5,[39],115.03%
same,Growth Percent OVCAR-8,[40],−79.84%
same,Growth Percent 786-0,[41],80.27%
same,Growth Percent CAKI-1,[42],−1.76%
same,Growth Percent ACHN,[43],−44.97%
same,Growth Percent SN12C,[44],−61.79%
same,Growth Percent TK-10,[45],103.17%
same,Growth Percent RXF 393,[46],−62.42%
same,Growth Percent NCI/ADR-RES,[47],−37.28%
same,Growth Percent MDA-MB-435,[48],−61.08%
